Our source for the IC50 values is patent US20090110720A1, “Use of compounds for the prevention of drug-induced cell toxicity” (priority 2005, published 2009).

The target in this test is megalin (Oryctolagus cuniculus, UniProt Z9GY10I8Y6). Put plainly: Inhibition of gentamicin binding to immobilized megalin by surface plasmon resonance (Biacore 2000). The settings on record: 1 mM gentamicin co-injected; megalin purified from rabbit kidneys immobilized on chip; pH 7.4 buffer; FIG. 3; read-out: antagonist concentration at which 50% inhibition of gentamicin binding is obtained. On the procedure: Inhibition of gentamicin binding to immobilized megalin by p-xylylene diamine was assessed by surface plasmon resonance (SPR) analysis on a Biacore 2000 instrument (Biacore, Uppsala, Sweden). Megalin purified from rabbit kidneys as described in Birn et al. (J. Biol. Chem., 1997, Vol. 272, No. 42, 26497-26504) was immobilized in a concentration of 28-40 fmol/mm^2. Samples were dissolved in 10 mM Hepes, 150 mM NaCl, 1.5 mM CaCl2, 1 mM EGTA, 0.005% Tween-20 pH 7.4. The same buffer was used as running buffer. At time zero, p-xylylene diamine at the concentrations indicated (FIG. 3) were applied to the chip and binding as expressed in relative response units (RU), i.e. the difference in response between megalin and a control flow channel, was measured. After 700 sec., 1 mM gentamicin was co-injected with buffer alone or various concentrations of p-xylylene diamine. Inhibition of gentamicin binding is scored as the difference in RU units obtained by injection of gentamicin alone and in the presence of the antagonist. Regeneration of the sensor chip after each analysis cycle was performed with 1.6 M glycine-HCl buffer pH 3.0.
50% inhibition is obtained at an antagonist concentration of about 0.1 mM.

megalin, sequence (Z9GY10I8Y6 26-4660 limits assumed): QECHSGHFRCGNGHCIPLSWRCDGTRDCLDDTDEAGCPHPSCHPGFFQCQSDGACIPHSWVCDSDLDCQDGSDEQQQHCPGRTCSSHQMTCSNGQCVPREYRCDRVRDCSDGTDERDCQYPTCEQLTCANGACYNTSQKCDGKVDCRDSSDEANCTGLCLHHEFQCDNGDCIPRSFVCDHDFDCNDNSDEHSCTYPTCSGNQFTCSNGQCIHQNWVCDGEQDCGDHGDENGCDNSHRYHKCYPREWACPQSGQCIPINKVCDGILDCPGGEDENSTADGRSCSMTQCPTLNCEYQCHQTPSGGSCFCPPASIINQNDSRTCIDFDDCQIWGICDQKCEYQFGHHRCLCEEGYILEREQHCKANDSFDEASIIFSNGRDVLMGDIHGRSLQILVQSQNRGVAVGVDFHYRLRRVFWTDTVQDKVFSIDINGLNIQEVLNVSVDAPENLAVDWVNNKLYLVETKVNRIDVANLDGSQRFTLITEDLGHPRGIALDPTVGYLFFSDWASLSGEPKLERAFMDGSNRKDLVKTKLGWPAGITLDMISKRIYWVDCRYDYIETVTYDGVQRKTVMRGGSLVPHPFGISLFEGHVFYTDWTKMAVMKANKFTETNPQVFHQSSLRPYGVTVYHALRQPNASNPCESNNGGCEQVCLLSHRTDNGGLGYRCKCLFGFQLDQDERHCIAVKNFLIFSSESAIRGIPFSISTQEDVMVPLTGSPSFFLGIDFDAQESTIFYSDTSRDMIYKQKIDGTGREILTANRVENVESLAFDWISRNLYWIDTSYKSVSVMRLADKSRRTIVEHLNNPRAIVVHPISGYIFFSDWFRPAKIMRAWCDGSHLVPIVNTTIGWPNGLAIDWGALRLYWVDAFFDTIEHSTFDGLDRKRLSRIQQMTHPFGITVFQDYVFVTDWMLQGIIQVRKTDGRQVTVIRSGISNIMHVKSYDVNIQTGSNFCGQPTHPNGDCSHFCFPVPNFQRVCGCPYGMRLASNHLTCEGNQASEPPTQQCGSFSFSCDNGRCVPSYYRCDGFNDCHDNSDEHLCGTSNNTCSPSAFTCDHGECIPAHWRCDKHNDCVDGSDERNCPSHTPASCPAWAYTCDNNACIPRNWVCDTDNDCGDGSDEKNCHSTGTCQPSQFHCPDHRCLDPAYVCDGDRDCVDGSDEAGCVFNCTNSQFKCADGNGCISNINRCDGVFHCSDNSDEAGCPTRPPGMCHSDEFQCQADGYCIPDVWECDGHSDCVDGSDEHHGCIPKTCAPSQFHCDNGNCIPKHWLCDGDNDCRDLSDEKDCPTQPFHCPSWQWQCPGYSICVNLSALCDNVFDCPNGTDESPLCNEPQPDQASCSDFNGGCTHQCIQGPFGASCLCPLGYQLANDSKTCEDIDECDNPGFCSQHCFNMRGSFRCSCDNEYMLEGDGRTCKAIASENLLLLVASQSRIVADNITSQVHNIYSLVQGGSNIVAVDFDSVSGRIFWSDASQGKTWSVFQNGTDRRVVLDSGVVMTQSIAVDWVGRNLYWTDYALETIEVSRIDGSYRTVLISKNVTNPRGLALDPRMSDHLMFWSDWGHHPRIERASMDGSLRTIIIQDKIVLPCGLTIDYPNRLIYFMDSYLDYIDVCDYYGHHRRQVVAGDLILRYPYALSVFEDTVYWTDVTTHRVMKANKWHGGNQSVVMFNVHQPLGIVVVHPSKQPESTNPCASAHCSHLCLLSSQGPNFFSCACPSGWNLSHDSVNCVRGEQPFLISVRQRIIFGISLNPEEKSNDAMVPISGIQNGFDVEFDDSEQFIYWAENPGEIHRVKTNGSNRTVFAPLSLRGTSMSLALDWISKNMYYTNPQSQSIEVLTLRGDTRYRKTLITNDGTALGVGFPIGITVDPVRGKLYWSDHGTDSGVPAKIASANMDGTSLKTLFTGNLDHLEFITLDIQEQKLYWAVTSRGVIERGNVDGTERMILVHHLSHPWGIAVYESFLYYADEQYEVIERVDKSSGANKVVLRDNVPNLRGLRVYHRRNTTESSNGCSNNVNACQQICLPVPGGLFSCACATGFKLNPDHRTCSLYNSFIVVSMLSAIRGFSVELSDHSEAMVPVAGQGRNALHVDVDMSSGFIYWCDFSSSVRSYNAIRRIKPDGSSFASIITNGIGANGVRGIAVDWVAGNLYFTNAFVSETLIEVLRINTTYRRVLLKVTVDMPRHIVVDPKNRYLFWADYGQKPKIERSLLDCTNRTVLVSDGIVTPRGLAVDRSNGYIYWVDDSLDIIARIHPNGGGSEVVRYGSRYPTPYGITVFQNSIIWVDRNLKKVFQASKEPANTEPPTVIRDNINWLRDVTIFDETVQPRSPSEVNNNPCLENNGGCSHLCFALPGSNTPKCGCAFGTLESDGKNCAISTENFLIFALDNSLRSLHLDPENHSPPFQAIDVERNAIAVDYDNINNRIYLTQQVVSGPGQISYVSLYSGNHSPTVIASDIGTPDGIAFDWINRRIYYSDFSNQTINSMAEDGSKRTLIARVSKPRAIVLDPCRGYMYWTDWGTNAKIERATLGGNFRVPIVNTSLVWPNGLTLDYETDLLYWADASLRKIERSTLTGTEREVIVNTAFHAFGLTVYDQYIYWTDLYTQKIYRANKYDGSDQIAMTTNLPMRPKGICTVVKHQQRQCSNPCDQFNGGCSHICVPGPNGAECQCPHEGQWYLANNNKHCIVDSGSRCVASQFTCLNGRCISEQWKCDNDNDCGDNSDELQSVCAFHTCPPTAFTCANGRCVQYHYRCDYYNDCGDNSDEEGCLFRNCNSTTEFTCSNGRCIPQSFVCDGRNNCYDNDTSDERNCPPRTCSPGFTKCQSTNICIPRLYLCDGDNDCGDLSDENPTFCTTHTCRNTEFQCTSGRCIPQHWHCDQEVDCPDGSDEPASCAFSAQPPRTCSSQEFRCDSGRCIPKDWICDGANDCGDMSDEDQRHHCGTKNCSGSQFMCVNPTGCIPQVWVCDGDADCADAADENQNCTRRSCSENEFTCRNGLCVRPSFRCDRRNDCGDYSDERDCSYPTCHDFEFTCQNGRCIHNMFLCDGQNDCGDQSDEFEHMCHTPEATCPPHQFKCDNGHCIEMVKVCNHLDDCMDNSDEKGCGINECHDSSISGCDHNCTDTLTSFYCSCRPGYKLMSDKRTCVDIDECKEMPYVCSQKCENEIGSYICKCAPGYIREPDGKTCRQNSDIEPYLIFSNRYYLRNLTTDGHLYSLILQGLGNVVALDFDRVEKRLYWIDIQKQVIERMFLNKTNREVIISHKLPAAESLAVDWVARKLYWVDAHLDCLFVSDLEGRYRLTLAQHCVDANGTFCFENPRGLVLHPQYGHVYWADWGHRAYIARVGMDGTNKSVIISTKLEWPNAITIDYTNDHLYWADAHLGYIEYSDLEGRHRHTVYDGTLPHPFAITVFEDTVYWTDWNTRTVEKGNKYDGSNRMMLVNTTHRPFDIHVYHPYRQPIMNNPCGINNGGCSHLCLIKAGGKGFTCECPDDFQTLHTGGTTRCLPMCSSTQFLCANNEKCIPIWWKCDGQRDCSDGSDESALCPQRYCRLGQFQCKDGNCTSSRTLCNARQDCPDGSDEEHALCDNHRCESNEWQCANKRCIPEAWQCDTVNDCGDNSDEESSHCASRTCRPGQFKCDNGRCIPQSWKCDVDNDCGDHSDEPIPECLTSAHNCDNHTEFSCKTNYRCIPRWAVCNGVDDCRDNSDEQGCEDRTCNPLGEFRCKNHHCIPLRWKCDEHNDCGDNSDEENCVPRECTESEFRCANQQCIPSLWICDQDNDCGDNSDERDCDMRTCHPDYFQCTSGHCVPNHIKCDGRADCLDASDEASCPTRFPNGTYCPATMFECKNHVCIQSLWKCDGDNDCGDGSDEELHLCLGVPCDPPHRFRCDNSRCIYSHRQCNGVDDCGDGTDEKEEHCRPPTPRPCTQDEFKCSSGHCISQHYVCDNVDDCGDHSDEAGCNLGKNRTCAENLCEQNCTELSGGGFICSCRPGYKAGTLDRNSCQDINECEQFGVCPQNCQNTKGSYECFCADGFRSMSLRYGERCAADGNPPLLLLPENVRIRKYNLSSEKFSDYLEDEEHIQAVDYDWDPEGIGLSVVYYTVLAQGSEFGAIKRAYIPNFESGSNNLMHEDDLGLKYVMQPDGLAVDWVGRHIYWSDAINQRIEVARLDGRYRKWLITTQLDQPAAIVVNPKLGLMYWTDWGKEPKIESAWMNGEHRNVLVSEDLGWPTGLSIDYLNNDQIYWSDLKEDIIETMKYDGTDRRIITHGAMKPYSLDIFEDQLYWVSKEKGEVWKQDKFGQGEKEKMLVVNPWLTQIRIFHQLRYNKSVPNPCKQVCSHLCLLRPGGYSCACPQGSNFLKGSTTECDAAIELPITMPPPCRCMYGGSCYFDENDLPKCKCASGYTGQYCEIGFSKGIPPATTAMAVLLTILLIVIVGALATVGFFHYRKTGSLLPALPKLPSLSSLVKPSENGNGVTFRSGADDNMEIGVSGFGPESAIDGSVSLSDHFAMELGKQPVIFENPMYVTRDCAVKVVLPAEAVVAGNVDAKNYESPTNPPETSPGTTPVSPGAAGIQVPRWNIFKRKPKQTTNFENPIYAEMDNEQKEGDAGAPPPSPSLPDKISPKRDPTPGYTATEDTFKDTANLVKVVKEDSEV

For the molecule `NCc1ccc(CN)cc1` [RC043, p-xylylene diamine], the IC50 is about 100 µM.
